Experimental data published in PubChem BioAssay AID1845213 (Molecular Pharmacology Branch, DTP, NCI, 2023).

System: NCI-H841 complex tumor spheroid viability
Assay: Anticancer human tumor NCI-H841 cell line growth inhibition;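 note: spheroids exposed to compounds for 7 days before readout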;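 for viability, T/C: 100% = DMSO vehicle control wells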
Conditions: for IC50: curve of first compound; for viability, T/C: stronger effect = lower value
Source text: Multicellular complex tumor spheroid response to DNA repair inhibitors in combination with DNA-damaging drugs
This study explores the anticancer activities of DNA-damaging drugs and inhibitors of DNA damage repair, both as single agents and in combinations. Complex tumor spheroids comprised of malignant cells, endothelial cells and mesenchymal stem cells served as an in vitro model for human solid tumors. This model system incorporates physiologically relevant features and patient-derived or established malignant cell lines with clinically relevant genetic alterations from many tumor types. Twenty-six patient-derived or established malignant cell lines were evaluated representing sarcoma, melanoma, small cell lung cancer (SCLC), non-small cell lung cancer (NSCLC), as well as bladder, ovarian and pancreatic cancers. The concentration ranges selected for each drug and investigational agent were based upon clinically achievable concentrations if the clinical Cmax of the agent was known.
Compounds. The drugs and compounds olaparib (NSC753686), talazoparib (NSC767125), berzosertib (NSC777718), elimusertib (NSC800525), nedisertib (NSC802822), VX-984 (NSC792969), AZD-1390 (NSC803789), temozolomide (NSC362856), topotecan (NSC609699), trabectedin (NSC813783), staurosporine (NSC755774), and gemcitabine (NSC613327) were obtained from the National Cancer Institute (NCI) Developmental Therapeutics Program Chemical Repository. The FDA-approved anticancer drug set is available from the Developmental Therapeutics Program at https://dtp.cancer.gov/organization/dscb/obtaining/available_plates.htm. […] The stock solutions were prepared in dimethyl sulfoxide (DMSO, Sigma-Aldrich, St. Louis, MO, cat. D2650) at 400-fold the tested concentration and stored at -70 degrees C. Prior to their use, the stock solutions were diluted in fresh medium and the final DMSO concentration in the assay was 0.25% (v/v). All drugs and investigational agents were tested over a range starting from a high concentration at or near the clinical Cmax and decreasing in half-log increments. If the clinical Cmax for an agent had not been determined, the highest concentration tested was 10 microM.
Cell Lines. The patient-derived cancer cell (PDC) lines: 156681-154-R-J1-PDC, 283228-195-R-J1-PDC, 287954-098-R-J1-PDC, 292921-168-R-J2-PDC, 349418-098-R-PDC, 425362-245-T-J1-PDC, 556581-035-R-J1-PDC, and BL0293-F563-PDC were received from the NCI Patient-Derived Models Repository (PDMR, https://pdmr.cancer.gov). The established cell lines HS-SY-2 (RRID:CVCL_8719), MPNST, and SYO-1 (RRID:CVCL_7146) were obtained from the Sloan Kettering Institute. The alveolar soft parts sarcoma cell line ASPS-1 (RRID:CVCL_S738) was established at the NCI and grown from internal seed stocks. The following established cell lines were purchased from the American Type Culture Collection (ATCC, Manassas, VA): G-401 (ATCC, cat. CRL-1441, RRID:CVCL_0270), SW982 (ATCC, cat. HTB-93, RRID:CVCL_1734), VA-ES-BJ (ATCC, cat. CRL-2138, RRID:CVCL_1785), NCI-H719 (ATCC, cat. CRL-5837, RRID:CVCL_1582), NCI-H196 (ATCC, cat. CRL-5823, RRID:CVCL_1509), NCI-H841 (ATCC, cat. CRL-5845, RRID:CVCL_1595), NCI-H1618 (ATCC, cat. CRL-5879, RRID:CVCL_1480), NCI-H1876 (ATCC, cat. CRL-5902, RRID:CVCL_1503), DMS 114 (ATCC, cat. CRL-2066; RRID:CVCL_1174), NCI-H211 (ATCC, cat. CRL-5824; RRID:CVCL_1529), and SW 1271 (ATCC, cat. CRL-2177, RRID:CVCL_1716). The small cell lung cancer cell line COR-L88 was purchased from Sigma-Aldrich (cat. 92031917-1VL, RRID:CVCL_1141). The non-small cell lung cancer cell lines NCI-H226 (RRID:CVCL_1544) and NCI-H322M (RRID:CVCL_1557) were established at the NCI and grown from internal seed stocks. Pooled donor human umbilical vein endothelial cells (HUVEC, Lonza, cat. CC-2519) and human mesenchymal stem cells (hMSC, Lonza, cat. PT-2501) were purchased from Lonza (Walkersville, MD).
Cell Culture. All cells were maintained in an incubator at 37 degrees C and 5% CO2 with 95% humidity. […]

[1] = second compound 0.003 µM, first compound 0.00949 µM
[2] = second compound 0.003 µM, first compound 0.03 µM
[3] = second compound 0.003 µM, first compound 0.0949 µM
[4] = second compound 0.003 µM, first compound 0.3 µM
[5] = second compound 0.003 µM, first compound 0.949 µM
[6] = second compound 0.003 µM, first compound 3 µM
[7] = second compound 0.00949 µM, first compound 0.00949 µM
[8] = second compound 0.00949 µM, first compound 0.03 µM
[9] = second compound 0.00949 µM, first compound 0.0949 µM
[10] = second compound 0.00949 µM, first compound 0.3 µM
[11] = second compound 0.00949 µM, first compound 0.949 µM
[12] = second compound 0.00949 µM, first compound 3 µM
[13] = second compound 0.03 µM, first compound 0.00949 µM
[14] = second compound 0.03 µM, first compound 0.03 µM
[15] = second compound 0.03 µM, first compound 0.0949 µM
[16] = second compound 0.03 µM, first compound 0.3 µM
[17] = second compound 0.03 µM, first compound 0.949 µM
[18] = second compound 0.03 µM, first compound 3 µM
[19] = second compound 0.0949 µM, first compound 0.00949 µM
[20] = second compound 0.0949 µM, first compound 0.03 µM
[21] = second compound 0.0949 µM, first compound 0.0949 µM
[22] = second compound 0.0949 µM, first compound 0.3 µM
[23] = second compound 0.0949 µM, first compound 0.949 µM
[24] = second compound 0.0949 µM, first compound 3 µM
[25] = second compound 0.3 µM, first compound 0.00949 µM
[26] = second compound 0.3 µM, first compound 0.03 µM
[27] = second compound 0.3 µM, first compound 0.0949 µM
[28] = second compound 0.3 µM, first compound 0.3 µM
[29] = second compound 0.3 µM, first compound 0.949 µM
[30] = second compound 0.3 µM, first compound 3 µM

Structure (SMILES)	IC50 (second compound 0.003 µM) [nM]	IC50 (second compound 0.00949 µM) [nM]	IC50 (second compound 0.03 µM) [nM]	IC50 (second compound 0.0949 µM) [nM]	IC50 (second compound 0.3 µM) [nM]	viability, T/C [3] [%]	viability, T/C [4] [%]	viability, T/C [5] [%]	viability, T/C [6] [%]	viability, T/C [9] [%]	viability, T/C [10] [%]	viability, T/C [11] [%]	viability, T/C [12] [%]	viability, T/C [15] [%]	viability, T/C [16] [%]	viability, T/C [17] [%]	viability, T/C [18] [%]	viability, T/C [21] [%]	viability, T/C [22] [%]	viability, T/C [23] [%]	also measured
CNCc1ccc(-c2cc(-c3nc(-c4ccc(S(=O)(=O)C(C)C)cc4)cnc3N)on2)cc1 + CC[C@@]1(O)C(=O)OCc2c1cc1n(c2=O)Cc2cc3c(CN(C)C)c(O)ccc3nc2-1	56.1	< 9.49	< 9.49	< 9.49	< 9.49	25.8	5.41	1.29	0.44	7.71	1.95	1	0.31	1.25	1.64	0.71	0.17	0.92	0.89	0.76	viability, T/C [1]: 89.3%; viability, T/C [2]: 78.7%; viability, T/C [7]: 49.2%; viability, T/C [8]: 35.6%; viability, T/C [13]: 1.53%; viability, T/C [14]: 4.09%; viability, T/C [19]: 1.32%; viability, T/C [20]: 3.66%; viability, T/C [24]: 0.15%; viability, T/C [25]: 1.45%; viability, T/C [26]: 1.41%; viability, T/C [27]: 1.07%; viability, T/C [28]: 0.61%; viability, T/C [29]: 2.25%; viability, T/C [30]: 0.16%
Cn1ncnc1[C@H]1c2n[nH]c(=O)c3cc(F)cc(c23)N[C@@H]1c1ccc(F)cc1 + CC[C@@]1(O)C(=O)OCc2c1cc1n(c2=O)Cc2cc3c(CN(C)C)c(O)ccc3nc2-1	< 9.49	< 9.49	< 9.49	< 9.49	< 9.49	29.9	8.52	1.44	1.96	2.55	1.48	1.52	2.21	1.39	1.4	1.41	1.81	1.61	1.69	1.52	viability, T/C [1]: 47.7%; viability, T/C [2]: 40.1%; viability, T/C [7]: 5.87%; viability, T/C [8]: 2.75%; viability, T/C [13]: 1.67%; viability, T/C [14]: 1.74%; viability, T/C [19]: 1.86%; viability, T/C [20]: 1.68%; viability, T/C [24]: 1.31%; viability, T/C [25]: 0.97%; viability, T/C [26]: 0.99%; viability, T/C [27]: 0.94%; viability, T/C [28]: 0.9%; viability, T/C [29]: 0.63%; viability, T/C [30]: 0.52%
O=C(c1cc(Cc2n[nH]c(=O)c3ccccc23)ccc1F)N1CCN(C(=O)C2CC2)CC1 + CC[C@@]1(O)C(=O)OCc2c1cc1n(c2=O)Cc2cc3c(CN(C)C)c(O)ccc3nc2-1	1480	< 94.9	< 94.9	< 94.9	< 94.9	79.5	75.1	60.5	33.6	19.2	17.4	12.7	3.98	1.3	1.56	1.06	1.3	7.65	1.58	1.52	viability, T/C (second compound 0.003 µM, first compound 9.49 µM): 6.04%; viability, T/C (second compound 0.003 µM, first compound 30 µM): 2.34%; viability, T/C (second compound 0.00949 µM, first compound 9.49 µM): 7.48%; viability, T/C (second compound 0.00949 µM, first compound 30 µM): 2.29%; viability, T/C (second compound 0.03 µM, first compound 9.49 µM): 1.43%; viability, T/C (second compound 0.03 µM, first compound 30 µM): 1.97%; viability, T/C [24]: 1.38%; viability, T/C (second compound 0.0949 µM, first compound 9.49 µM): 1.27%; viability, T/C (second compound 0.0949 µM, first compound 30 µM): 1.95%; viability, T/C [27]: 0.94%; viability, T/C [28]: 1.16%; viability, T/C [29]: 0.93%; viability, T/C [30]: 0.82%; viability, T/C (second compound 0.3 µM, first compound 9.49 µM): 0.61%; viability, T/C (second compound 0.3 µM, first compound 30 µM): 0.6%
